Reference: ChEMBL document CHEMBL1201862, “PubChem BioAssay data set” (2004)
Calls of active or inactive are those of the source.

Key:
[1] = target: Delta-type opioid receptor (Homo sapiens, UniProt P41143); assay: SAR Analysis of Antagonists of the DOR Receptor using an Image-Based Assay - Set 3. [Related pubchem assays (depositor defined):AID1777, AID1785]; format: functional;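 further: U2OS cells expressing DOR1 and beta-arrestin GFP stimulated with 100 nM SNC80; imaging of GFP-tagged beta-arrestin moving into spots after receptor activation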
Delta-type opioid receptor, sequence (P41143 whole entry): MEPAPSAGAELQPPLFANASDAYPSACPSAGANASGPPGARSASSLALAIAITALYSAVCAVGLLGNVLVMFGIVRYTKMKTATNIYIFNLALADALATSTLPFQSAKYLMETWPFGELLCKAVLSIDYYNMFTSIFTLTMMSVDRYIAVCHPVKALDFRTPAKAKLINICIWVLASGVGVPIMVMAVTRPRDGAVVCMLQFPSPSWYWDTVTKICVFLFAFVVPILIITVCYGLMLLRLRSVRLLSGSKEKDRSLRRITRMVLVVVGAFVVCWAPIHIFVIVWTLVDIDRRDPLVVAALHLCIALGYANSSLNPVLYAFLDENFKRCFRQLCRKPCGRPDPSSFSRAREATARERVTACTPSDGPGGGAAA

[2] = target: T1, Kappa-type opioid receptor (Homo sapiens, UniProt P41145); assay: SAR analysis of small molecule antagonists of the kappa opioid receptor via a luminescent beta-arrestin assay - Set 4. [Related pubchem assays (depositor defined):AID1777, AID1778, AID1785, AID1786, AID1966, AID2133, AID2136, AID2285]; format: functional
T1 sequence (P41145 whole entry): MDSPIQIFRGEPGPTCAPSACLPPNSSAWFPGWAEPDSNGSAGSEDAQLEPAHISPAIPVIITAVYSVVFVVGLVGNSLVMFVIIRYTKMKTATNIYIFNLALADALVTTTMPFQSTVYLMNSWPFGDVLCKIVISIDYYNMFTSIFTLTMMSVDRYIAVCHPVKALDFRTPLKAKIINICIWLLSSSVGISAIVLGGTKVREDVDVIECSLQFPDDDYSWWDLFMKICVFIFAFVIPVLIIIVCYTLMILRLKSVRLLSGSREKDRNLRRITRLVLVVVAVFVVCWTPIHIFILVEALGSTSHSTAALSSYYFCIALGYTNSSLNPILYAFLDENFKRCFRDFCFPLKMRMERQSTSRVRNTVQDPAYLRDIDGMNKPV

[3] = target: T1, Kappa-type opioid receptor; assay: SAR analysis of Antagonists of the Kappa Opioid Receptor (KOR) using an Image-Based Assay - Set 4. [Related pubchem assays (depositor defined):AID1777, AID1785]; format: functional
[4] = target: T1, Kappa-type opioid receptor; assay: SAR analysis of small molecule antagonists of the kappa opioid receptor via a luminescent beta-arrestin assay - Set 6. [Related pubchem assays (depositor defined):AID1777, AID1778, AID1785, AID1786, AID1966, AID2133, AID2136, AID2285]; format: functional
Mu-type opioid receptor = Mu-type opioid receptor (Homo sapiens, UniProt P35372); assay: SAR Analysis of Antagonists of the MOR Receptor using an Image-Based Assay - Set 3. [Related pubchem assays (depositor defined):AID1777, AID1785, AID1786, AID1966, AID2133, AID2136, AID2284, AID2285, AID2420]; format: functional
Mu-type opioid receptor, sequence (P35372 whole entry): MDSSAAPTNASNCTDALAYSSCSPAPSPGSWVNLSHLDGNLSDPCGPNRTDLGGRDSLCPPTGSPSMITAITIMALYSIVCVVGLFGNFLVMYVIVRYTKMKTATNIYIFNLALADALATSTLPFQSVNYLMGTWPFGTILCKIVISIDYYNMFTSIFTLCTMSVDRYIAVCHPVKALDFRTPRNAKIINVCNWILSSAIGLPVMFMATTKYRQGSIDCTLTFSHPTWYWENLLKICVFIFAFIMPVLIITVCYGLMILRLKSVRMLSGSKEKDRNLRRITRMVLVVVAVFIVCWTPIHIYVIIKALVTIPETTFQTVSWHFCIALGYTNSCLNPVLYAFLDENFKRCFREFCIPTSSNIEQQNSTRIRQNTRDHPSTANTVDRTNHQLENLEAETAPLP

[5] = target: T2, Dual specificity protein phosphatase 3 (Homo sapiens, UniProt P51452); assay: SAR VHR1 Fluorescent Assay for In Vitro dose response studies. [Related pubchem assays (depositor defined):AID1654, AID1661, AID1878, AID1992, AID2004, AID2070, AID2085]; format: functional
T2 sequence (P51452 whole entry): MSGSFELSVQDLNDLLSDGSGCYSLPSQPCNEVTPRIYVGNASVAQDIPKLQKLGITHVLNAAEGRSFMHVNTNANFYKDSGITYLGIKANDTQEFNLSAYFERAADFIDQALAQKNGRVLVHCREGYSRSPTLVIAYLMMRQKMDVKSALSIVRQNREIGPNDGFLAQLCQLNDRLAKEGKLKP

[6] = target: T3, Long-chain-fatty-acid--AMP ligase FadD28 (Mycobacterium tuberculosis, UniProt P9WQ59); assay: Fluorescence polarization aasay to screen for inhibitors that compete for the binding of FadD28 to a bisubstrate Measured in Biochemical System Using Plate Reader - 2147-01_Inhibitor_Dose_CherryPick_Activity.; format: functional, Mycobacterium tuberculosis H37Rv
T3 sequence (P9WQ59 whole entry): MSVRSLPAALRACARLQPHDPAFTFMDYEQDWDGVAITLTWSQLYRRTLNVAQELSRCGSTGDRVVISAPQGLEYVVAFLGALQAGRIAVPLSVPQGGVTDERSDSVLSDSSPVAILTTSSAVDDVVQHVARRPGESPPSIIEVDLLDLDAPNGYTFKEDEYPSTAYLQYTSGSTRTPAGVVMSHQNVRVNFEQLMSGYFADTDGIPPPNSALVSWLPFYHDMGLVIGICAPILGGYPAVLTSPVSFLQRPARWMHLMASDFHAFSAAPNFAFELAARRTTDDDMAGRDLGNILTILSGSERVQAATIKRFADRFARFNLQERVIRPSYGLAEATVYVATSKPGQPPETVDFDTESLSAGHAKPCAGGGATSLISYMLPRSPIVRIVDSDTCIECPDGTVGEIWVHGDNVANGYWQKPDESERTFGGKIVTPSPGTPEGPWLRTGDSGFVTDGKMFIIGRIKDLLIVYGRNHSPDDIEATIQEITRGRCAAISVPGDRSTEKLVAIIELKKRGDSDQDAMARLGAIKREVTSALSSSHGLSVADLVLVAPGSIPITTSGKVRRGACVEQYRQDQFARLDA

[7] = target: T2, Dual specificity protein phosphatase 3; assay: VHR1 phosphatase inhibitors, biochemical (AID 1878)
[8] = target: T4, Dual specificity protein phosphatase 6 (Rattus norvegicus, UniProt Q64346); assay: MKP-3 phosphatase inhibitors, primary screen, biochemical, rat enzyme, in vitro (AID 425)
T4 sequence (Q64346 whole entry): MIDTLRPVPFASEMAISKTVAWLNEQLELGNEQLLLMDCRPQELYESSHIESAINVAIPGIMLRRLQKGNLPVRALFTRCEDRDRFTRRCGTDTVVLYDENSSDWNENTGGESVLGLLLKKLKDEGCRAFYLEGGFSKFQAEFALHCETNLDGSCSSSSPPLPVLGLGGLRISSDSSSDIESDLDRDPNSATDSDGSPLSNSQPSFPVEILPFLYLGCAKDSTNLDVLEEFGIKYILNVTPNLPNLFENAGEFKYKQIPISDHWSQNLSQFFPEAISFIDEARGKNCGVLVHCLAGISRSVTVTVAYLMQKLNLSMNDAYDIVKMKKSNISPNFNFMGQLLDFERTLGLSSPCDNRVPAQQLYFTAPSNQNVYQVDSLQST

[9] = target: T5, Tyrosine-protein phosphatase non-receptor type 7 (Homo sapiens, UniProt P35236); assay: redox-dependent HePTP inhibition, mechanism study, biochemical, fluorescence (AID 2068); format: functional
T5 sequence (P35236 whole entry): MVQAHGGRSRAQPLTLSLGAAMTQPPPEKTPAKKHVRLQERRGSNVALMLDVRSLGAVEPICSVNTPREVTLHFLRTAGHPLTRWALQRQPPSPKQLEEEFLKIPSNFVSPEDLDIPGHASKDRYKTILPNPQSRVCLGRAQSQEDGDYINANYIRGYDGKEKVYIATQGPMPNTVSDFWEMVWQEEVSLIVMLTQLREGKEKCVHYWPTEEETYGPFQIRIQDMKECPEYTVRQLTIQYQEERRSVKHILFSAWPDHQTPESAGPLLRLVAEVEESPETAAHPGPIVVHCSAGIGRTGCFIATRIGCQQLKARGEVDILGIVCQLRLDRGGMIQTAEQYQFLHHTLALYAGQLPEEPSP

[10] = target: Tyrosine-protein phosphatase non-receptor type 12 (Homo sapiens, UniProt Q05209); assay: SAR Selectivity Analysis of small molecule inhibitors of PEST using pCAP in a fluorescence assay. [Related pubchem assays (depositor defined):AID1779, AID1784, AID2135]; format: functional
[11] = target: T2, Dual specificity protein phosphatase 3; assay: SAR VHR1 absorbance Assay for In Vitro dose response studies. [Related pubchem assays (depositor defined):AID1654, AID1661, AID1878, AID1992, AID2004]
[12] = target: T4, Dual specificity protein phosphatase 6; format: functional
[13] = target: T6, Voltage-gated N-type calcium channel alpha-1B subunit/Amyloid beta A4 precursor protein-binding family A member 1 (Homo sapiens, UniProt Q00975+Q02410); format: protein assay
T6 sequence (Q00975 whole entry): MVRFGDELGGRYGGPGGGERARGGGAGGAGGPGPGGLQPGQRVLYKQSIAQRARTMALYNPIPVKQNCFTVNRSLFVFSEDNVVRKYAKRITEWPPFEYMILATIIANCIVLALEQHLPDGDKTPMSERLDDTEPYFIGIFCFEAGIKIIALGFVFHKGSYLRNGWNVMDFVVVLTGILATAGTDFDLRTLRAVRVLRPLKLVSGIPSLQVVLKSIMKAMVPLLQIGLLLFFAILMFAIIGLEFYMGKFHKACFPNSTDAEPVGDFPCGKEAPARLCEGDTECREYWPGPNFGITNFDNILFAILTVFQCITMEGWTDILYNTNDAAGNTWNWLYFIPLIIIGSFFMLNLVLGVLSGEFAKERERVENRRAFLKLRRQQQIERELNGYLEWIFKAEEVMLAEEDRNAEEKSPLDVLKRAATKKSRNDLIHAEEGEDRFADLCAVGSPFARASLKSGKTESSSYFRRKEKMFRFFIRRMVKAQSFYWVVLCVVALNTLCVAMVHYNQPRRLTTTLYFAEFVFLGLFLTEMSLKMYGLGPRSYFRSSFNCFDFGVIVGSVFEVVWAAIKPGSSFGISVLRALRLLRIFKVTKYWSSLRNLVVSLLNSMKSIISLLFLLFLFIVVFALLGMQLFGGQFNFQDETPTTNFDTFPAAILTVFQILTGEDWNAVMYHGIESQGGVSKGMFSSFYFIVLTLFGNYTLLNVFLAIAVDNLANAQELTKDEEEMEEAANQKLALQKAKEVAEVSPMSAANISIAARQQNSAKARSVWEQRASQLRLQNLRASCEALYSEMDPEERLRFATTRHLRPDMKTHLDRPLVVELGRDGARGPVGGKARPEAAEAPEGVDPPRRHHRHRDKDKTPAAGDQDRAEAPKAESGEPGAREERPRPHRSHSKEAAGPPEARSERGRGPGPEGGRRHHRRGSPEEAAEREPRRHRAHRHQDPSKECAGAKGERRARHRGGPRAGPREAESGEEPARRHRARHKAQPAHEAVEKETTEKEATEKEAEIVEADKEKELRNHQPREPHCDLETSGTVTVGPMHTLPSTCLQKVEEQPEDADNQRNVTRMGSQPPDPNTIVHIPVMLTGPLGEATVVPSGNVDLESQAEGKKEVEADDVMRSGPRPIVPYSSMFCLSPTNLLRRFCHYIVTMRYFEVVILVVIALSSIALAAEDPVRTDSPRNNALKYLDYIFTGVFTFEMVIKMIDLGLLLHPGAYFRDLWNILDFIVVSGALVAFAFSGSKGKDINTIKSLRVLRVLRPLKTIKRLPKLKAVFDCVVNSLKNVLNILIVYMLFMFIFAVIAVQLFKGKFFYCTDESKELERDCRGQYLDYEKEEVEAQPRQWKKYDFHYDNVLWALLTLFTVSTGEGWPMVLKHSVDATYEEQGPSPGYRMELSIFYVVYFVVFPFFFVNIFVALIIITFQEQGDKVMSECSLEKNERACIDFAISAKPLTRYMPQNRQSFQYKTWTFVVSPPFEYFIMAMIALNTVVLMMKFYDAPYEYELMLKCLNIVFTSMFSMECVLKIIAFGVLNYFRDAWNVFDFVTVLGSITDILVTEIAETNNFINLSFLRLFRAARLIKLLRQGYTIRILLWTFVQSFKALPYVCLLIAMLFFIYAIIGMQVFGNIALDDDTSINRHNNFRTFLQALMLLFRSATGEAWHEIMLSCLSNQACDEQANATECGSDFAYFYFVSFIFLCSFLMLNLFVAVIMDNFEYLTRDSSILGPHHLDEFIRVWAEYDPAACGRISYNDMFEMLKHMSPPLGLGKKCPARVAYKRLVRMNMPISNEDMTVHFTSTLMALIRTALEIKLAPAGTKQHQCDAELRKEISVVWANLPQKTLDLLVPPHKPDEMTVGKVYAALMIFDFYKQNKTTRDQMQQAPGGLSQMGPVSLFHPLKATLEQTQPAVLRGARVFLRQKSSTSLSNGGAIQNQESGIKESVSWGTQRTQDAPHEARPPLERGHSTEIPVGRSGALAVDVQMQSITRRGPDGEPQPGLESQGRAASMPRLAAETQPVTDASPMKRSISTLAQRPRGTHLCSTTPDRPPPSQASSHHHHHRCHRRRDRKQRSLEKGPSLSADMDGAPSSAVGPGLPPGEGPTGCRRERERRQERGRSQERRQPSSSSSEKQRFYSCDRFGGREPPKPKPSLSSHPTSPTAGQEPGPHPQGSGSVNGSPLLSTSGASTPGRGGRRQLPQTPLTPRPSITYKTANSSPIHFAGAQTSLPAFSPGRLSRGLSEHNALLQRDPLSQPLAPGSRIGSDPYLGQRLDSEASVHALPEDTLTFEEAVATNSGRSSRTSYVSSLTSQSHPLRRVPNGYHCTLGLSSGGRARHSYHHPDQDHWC
T6 sequence (Q02410 whole entry): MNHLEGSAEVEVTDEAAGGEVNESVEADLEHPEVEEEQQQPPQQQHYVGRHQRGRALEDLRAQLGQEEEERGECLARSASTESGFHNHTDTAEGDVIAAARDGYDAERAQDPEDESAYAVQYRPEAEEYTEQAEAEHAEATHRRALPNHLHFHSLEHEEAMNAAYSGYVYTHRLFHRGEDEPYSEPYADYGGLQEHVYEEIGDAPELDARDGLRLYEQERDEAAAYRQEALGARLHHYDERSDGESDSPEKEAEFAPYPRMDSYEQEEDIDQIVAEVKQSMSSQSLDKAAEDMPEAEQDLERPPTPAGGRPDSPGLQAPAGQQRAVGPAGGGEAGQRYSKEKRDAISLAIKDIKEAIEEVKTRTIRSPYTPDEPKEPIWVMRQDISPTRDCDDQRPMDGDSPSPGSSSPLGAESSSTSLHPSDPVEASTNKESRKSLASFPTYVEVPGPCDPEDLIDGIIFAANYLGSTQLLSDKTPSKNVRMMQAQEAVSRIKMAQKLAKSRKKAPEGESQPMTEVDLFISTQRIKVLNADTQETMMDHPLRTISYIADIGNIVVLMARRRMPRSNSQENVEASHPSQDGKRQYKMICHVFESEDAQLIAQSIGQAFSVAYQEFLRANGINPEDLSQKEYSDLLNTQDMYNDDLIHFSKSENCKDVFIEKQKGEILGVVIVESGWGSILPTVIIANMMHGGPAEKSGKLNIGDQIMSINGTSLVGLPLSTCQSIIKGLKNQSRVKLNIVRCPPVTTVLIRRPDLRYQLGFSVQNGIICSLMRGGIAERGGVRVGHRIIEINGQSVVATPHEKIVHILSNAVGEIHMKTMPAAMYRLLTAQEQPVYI

[14] = target: T6, Voltage-gated N-type calcium channel alpha-1B subunit/Amyloid beta A4 precursor protein-binding family A member 1; format: protein assay; remark: listed apart in the source
[15] = target: Serine/threonine-protein phosphatase PP1-alpha catalytic subunit (Homo sapiens, UniProt P62136); assay: PP1 phosphatase inhibitors, dose response, biochemical, fluorescence (AID 2403);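 further: phosphatase turnover of OMFP into fluorescent 3-O-methylfluorescein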
Serine/threonine-protein phosphatase PP1-alpha catalytic subunit, sequence (P62136 whole entry): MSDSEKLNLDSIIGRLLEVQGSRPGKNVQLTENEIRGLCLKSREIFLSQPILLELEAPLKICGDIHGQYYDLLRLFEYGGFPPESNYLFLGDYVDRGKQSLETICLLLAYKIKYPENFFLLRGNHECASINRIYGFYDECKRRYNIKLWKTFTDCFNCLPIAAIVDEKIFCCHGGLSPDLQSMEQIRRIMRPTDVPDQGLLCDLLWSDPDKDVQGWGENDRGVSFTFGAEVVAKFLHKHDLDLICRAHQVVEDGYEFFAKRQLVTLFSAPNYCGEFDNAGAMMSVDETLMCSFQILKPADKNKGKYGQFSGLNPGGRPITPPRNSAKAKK

[16] = target: Serine/threonine-protein phosphatase (Homo sapiens, UniProt Q9BPW0); assay: Counterscreen for inhibitors of PP1: fluorescence-based biochemical high throughput dose response assay to identify inhibitors of Protein Phosphatase 5 (PP5). [Related pubchem assays: 2034 (Summary (PP5 inhibitors)), 1987 (PP5 inhibitors in singlate), 2235 (PP1 inhibitors in singlate)]
[17] = target: T2, Dual specificity protein phosphatase 3; assay: VHR1 phosphatase inhibitors, primary screen, biochemical, absorbance, uHTS (AID 1654)
[18] = target: T7, Tyrosine-protein phosphatase non-receptor type 22 (Homo sapiens, UniProt Q9Y2R2); assay: SAR LYP1 Fluorescent Assay using OMFP substrate for In Vitro dose response studies - Set 3. [Related pubchem assays (depositor defined):AID1779, AID1784, AID2140, AID2686]; format: functional
T7 sequence (Q9Y2R2 whole entry): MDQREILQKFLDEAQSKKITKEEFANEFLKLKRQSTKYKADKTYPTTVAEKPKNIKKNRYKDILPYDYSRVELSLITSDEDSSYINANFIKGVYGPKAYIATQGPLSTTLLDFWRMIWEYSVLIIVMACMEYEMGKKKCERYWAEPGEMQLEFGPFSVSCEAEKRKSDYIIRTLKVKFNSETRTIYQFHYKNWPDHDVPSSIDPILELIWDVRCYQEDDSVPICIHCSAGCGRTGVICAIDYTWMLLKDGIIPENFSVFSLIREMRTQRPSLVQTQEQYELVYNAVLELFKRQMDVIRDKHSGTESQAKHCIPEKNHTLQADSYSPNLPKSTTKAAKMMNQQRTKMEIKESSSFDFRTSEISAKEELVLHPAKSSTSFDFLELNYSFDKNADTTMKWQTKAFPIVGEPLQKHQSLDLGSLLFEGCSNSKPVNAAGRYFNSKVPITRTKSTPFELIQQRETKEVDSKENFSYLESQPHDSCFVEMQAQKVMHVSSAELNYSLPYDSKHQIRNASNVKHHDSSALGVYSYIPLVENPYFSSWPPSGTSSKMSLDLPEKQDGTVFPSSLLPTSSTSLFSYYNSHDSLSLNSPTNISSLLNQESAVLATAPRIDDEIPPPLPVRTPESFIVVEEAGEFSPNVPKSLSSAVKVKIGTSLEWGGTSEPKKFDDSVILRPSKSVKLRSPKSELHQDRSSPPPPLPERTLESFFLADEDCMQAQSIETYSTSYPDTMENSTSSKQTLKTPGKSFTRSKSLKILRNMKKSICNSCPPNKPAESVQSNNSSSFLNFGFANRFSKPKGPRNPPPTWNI

[19] = target: T7, Tyrosine-protein phosphatase non-receptor type 22; assay: LYP (PTPN22) phosphatase inhibitor potency, SAR follow-up, biochemical, pCAP fluorogenic substrate, fluorescence, set 3 (AID 449727); format: functional

SMILES | IC50 [1] | IC50 [2] | IC50 [3] | IC50 [4] | IC50 (Mu-type opioid receptor) | IC50 [5] | AC50 [6] | IC50 [7] | IC50 [8] | IC50 [9] | IC50 [10] | IC50 [11] | IC50 [12] | IC50 [13] | IC50 [14] | IC50 [15] | IC50 [16] | IC50 [17] | IC50 [18] | IC50 [19]
Cc1ccc(S(=O)(=O)NCc2ccc(C(=O)NCCN3CCc4ccccc4C3)cc2)cc1 | > 32 µM (inactive) | > 20 µM (inactive) | 5.98 µM (active) | > 20 µM (inactive) | > 32 µM (inactive) |  |  |  |  |  |  |  |  |  |  |  |  |  |  | 
COc1cc(/C=C2\SC(=O)N(CC(=O)Nc3ccc(C)cc3)C2=O)cc(Cl)c1OCC(=O)O |  |  |  |  |  | 1.18 µM (active) | > 100 µM (inactive) | < 1.23 µM (inactive) | 75.2 µM (active) | 0.256 µM (active) | 0.313 µM (active) | 2.4 µM (active) | 6.66 µM (active) | 6.91 µM (active) | > 50 µM (inactive) | 6.24 µM (active) | > 67 µM (not active) | 5.01 µM (active) | 1.51 µM (active) | 0.803 µM (active)
